In US11780833B2, “Emetine derivatives, prodrugs containing same, and methods of treating conditions using same” (HOWARD UNIVERSITY, priority 2011, dated 2023):
Where two headings read alike, the source gives them in different places.

Assays:
[1] = tested on: DU145 cells; experiment: cells; assay type: cell-based; conditions: Homo sapiens
Description: (§1) Studies were carried out on three prostate cancer cell lines: LNCaP, PC3, and DU145. […] There was not a significant difference in cytotoxicity of emetine between days 3 and 7. […] This increase is most likely due to the release of emetine from the dithiocarbamate salt over the time period. Further drug release studies at pH 5 confirmed about 45% release of emetine from the dithiocarbamate salt after 3-day incubation at this acidic pH maintained at 37° C., whereas release of emetine from the dithiocarbamate salt was not observed at physiological pH (e.g., about 7.4).
(§2) Various compounds prepared according to Examples 1-5 were studied in LNCaP, PC3, and DU145 cells.
(§3) Various compounds prepared according to Example 6 were studied in DU145 and PC3 cells. The IC50 was determined at 3, 5, and 7 days.

[2] = tested on: PC3 cells; experiment: cells; assay type: cell-based; conditions: Homo sapiens
Description: as §1, §2, §3

[3] = pH-responsiveness by HPLC: emetine released in aqueous phosphate buffer; assay type: physicochemical; conditions: 37° C.
Description: Relative rates of hydrolysis of the compounds listed in Table 5 below over a 48 hour period were evaluated using the percent emetine released from the acid catalyzed hydrolysis of compounds 1 to 6.
The compounds were incubated in aqueous phosphate buffer at pH 5.5, 6.5 and 7.4 at 37° C. over a 48 hour period. High performance liquid chromatography (HPLC) was employed to analyze the samples and quantify how much emetine was released. The compounds whose hydrolysis to emetine is shown in table 5 are all 100% stable at physiological pH 7.4 up to a 5 day exposure.

[4] = tested on: LNCaP cells; experiment: Cytotoxicity in LNCaP prostate cancer cell line; assay type: cell-based; conditions: Homo sapiens, 168 h, read-out: IC50 after 7 days
Description: as §1, §2

[5] = DU-145, 168 h, read-out: IC50 after 7 days
[6] = PC-3, 168 h, read-out: IC50 after 7 days
[7] = DU-145, 72 h, read-out: IC50 in DU145
[8] = DU-145, 120 h, read-out: IC50 in DU145
[9] = DU-145, 168 h, read-out: IC50 in DU145
[10] = PC-3, 72 h, read-out: IC50 in PC3
[11] = PC-3, 120 h, read-out: IC50 in PC3
[12] = PC-3, 168 h, read-out: IC50 in PC3

Compound: CCC1CN2CCc3cc(OC)c(OC)cc3C2CC1CC1c2cc(OC)c(OC)cc2CCN1S(=O)(=O)c1ccc(F)cc1 (centres unmarked) [Compound 8c]
- IC50 [1, 5]: 8.038 ± 0.06 µM
- IC50 [2, 6]: 4.58 ± 0.383 µM

Compound: CCC1CN2CCc3cc(OC)c(OC)cc3C2CC1CC1c2cc(OC)c(OC)cc2CCN1C(=O)/C=C\C(=O)O (centres unmarked) [Compound 2]
- % Emetine at pH 5.5 ([3]; pH 5.5, 0 hr): 0.0%
- % Emetine at pH 5.5 ([3]; pH 5.5, 24 hrs): 36.3%
- % Emetine at pH 5.5 ([3]; pH 5.5, 48 hrs): 54.10%
- % Emetine at pH 6.5 ([3]; pH 6.5, 0 hr): 0.0%
- % Emetine at pH 6.5 ([3]; pH 6.5, 24 hrs): 35.5%
- % Emetine at pH 7.4 to 8.0 over 72 hrs ([3]; pH 7.4 to 8.0, 0 hrs): 0.0%
- % Emetine at pH 7.4 to 8.0 over 72 hrs ([3]; pH 7.4 to 8.0, 24 hrs): 0.0%
- % Emetine at pH 7.4 to 8.0 over 72 hrs ([3]; pH 7.4 to 8.0, 48 hrs): 0.0%

Compound: CCC1CN2CCc3cc(OC)c(OC)cc3C2CC1CC1c2cc(OC)c(OC)cc2CCN1C(=S)SCC(=O)c1ccc(Cl)cc1 (centres unmarked) [Compound 4i]
- IC50 [1, 5]: 2.45 ± 0.162 µM
- IC50 [2, 6]: 2.69 ± 0.145 µM

Compound: CCC1CN2CCc3cc(OC)c(OC)cc3C2CC1CC1c2cc(OC)c(OC)cc2CCN1C(=O)/C=C(/C)C(=O)O (centres unmarked) [Compound 3]
- % Emetine at pH 5.5 ([3]; pH 5.5, 0 hr): 0.0%
- % Emetine at pH 5.5 ([3]; pH 5.5, 24 hrs): 78.1%
- % Emetine at pH 5.5 ([3]; pH 5.5, 48 hrs): 93.4%
- % Emetine at pH 6.5 ([3]; pH 6.5, 0 hr): 0.0%
- % Emetine at pH 6.5 ([3]; pH 6.5, 24 hrs): 76.8%
- % Emetine at pH 6.5 ([3]; pH 6.5, 48 hrs): 82.7%
- % Emetine at pH 7.4 to 8.0 over 72 hrs ([3]; pH 7.4 to 8.0, 0 hrs): 0.0%
- % Emetine at pH 7.4 to 8.0 over 72 hrs ([3]; pH 7.4 to 8.0, 24 hrs): 0.0%
- % Emetine at pH 7.4 to 8.0 over 72 hrs ([3]; pH 7.4 to 8.0, 48 hrs): 0.0%

Compound: CCC1CN2CCc3cc(OC)c(OC)cc3C2CC1CC1c2cc(OC)c(OC)cc2CCN1C(=O)CCC(=O)O (centres unmarked) [Compound 15e2]
- IC50 [1, 7]: 0.733 ± 0.022 µM
- IC50 [1, 8]: 0.641 ± 0.0543 µM
- IC50 [1, 9]: 0.802 ± 0.0198 µM
- IC50 [2, 10]: 2.5 ± 0.0722 µM
- IC50 [2, 11]: 1.82 ± 0.161 µM
- IC50 [2, 12]: 2.15 ± 0.131 µM

Compound: CCCCNC(=S)N1CCc2cc(OC)c(OC)cc2C1CC1CC2c3cc(OC)c(OC)cc3CCN2CC1CC (centres unmarked) [Compound 11k]
- IC50 [4]: 1.31 ± 0.166 µM
- IC50 [1, 5]: 6.587 ± 0.0348 µM
- IC50 [2, 6]: 6.92 ± 0.17 µM

Compound: CCC1CN2CCc3cc(OC)c(OC)cc3C2CC1CC1c2cc(OC)c(OC)cc2CCN1C(=O)NCc1ccccc1 (centres unmarked) [Compound 13e]
- IC50 [4]: 2.12 ± 0.576 µM

Compound: CCC1CN2CCc3cc(OC)c(OC)cc3C2CC1CC1c2cc(OC)c(OC)cc2CCN1C(=S)SCCC(N)=O (centres unmarked) [Compound 4b]
- IC50 [4]: > 10 µM
- IC50 [1, 5]: > 10 µM
- IC50 [2, 6]: 6.56 ± 1.11 µM

Compound: CCC1CN2CCc3cc(OC)c(OC)cc3C2CC1CC1c2cc(OC)c(OC)cc2CCN1C(=S)Nc1ccc(Br)cc1 (centres unmarked) [Compound 11d]
- IC50 [4]: 0.339 ± 0.0327 µM
- IC50 [2, 6]: 0.443 ± 0.0383 µM

Compound: CCC1CN2CCc3cc(OC)c(OC)cc3C2CC1CC1c2cc(OC)c(OC)cc2CCN1S(=O)(=O)c1ccc(Cl)cc1 (centres unmarked) [Compound 8d]
- IC50 [1, 5]: 6.62 ± 0.167 µM
- IC50 [2, 6]: 4.21 ± 0.435 µM

Compound: CCC1CN2CCc3cc(OC)c(OC)cc3C2CC1CC1c2cc(OC)c(OC)cc2CCN1C(=S)NCc1ccc(OC)cc1 (centres unmarked) [Compound 11f]
- IC50 [2, 6]: 5 ± 0.307 µM

Compound: CCC1CN2CCc3cc(OC)c(OC)cc3C2CC1CC1c2cc(OC)c(OC)cc2CCN1C(=O)OCc1ccccc1 (centres unmarked) [Compound 5b]
- IC50 [4]: 2.16 ± 0.122 µM

Compound: CCC1CN2CCc3cc(OC)c(OC)cc3C2CC1CC1c2cc(OC)c(OC)cc2CCN1C(=O)/C=C\C(=O)O (centres unmarked) [Compound 4]
- % Emetine at pH 5.5 ([3]; pH 5.5, 0 hr): 0.0%
- % Emetine at pH 5.5 ([3]; pH 5.5, 24 hrs): 19.2%
- % Emetine at pH 5.5 ([3]; pH 5.5, 48 hrs): 27.1%
- % Emetine at pH 6.5 ([3]; pH 6.5, 0 hr): 0.0%
- % Emetine at pH 6.5 ([3]; pH 6.5, 24 hrs): 8.2%
- % Emetine at pH 6.5 ([3]; pH 6.5, 48 hrs): 17.1%
- % Emetine at pH 7.4 to 8.0 over 72 hrs ([3]; pH 7.4 to 8.0, 0 hrs): 0.0%
- % Emetine at pH 7.4 to 8.0 over 72 hrs ([3]; pH 7.4 to 8.0, 24 hrs): 0.0%
- % Emetine at pH 7.4 to 8.0 over 72 hrs ([3]; pH 7.4 to 8.0, 48 hrs): 0.0%

Compound: CCC1CN2CCc3cc(OC)c(OC)cc3C2CC1CC1c2cc(OC)c(OC)cc2CCN1C(=O)/C(Cl)=C(\Cl)C(=O)O (centres unmarked) [Compound 15b2]
- IC50 [1, 7]: 6.53 ± 0.0852 µM
- IC50 [1, 8]: 5.99 ± 0.239 µM
- IC50 [1, 9]: 5.218 ± 0.0459 µM
- IC50 [2, 10]: 7.58 ± 0.135 µM
- IC50 [2, 11]: 5.99 ± 0.239 µM
- IC50 [2, 12]: 7.51 ± 0.168 µM

Compound: CCC1CN2CCc3cc(OC)c(OC)cc3C2CC1CC1c2cc(OC)c(OC)cc2CCN1C(=O)/C=C(/CC(=O)O)C(=O)O (centres unmarked) [Compound 6]
- % Emetine at pH 5.5 ([3]; pH 5.5, 0 hr): 0.0%
- % Emetine at pH 5.5 ([3]; pH 5.5, 24 hrs): 33.9%
- % Emetine at pH 5.5 ([3]; pH 5.5, 48 hrs): 42.1%
- % Emetine at pH 6.5 ([3]; pH 6.5, 0 hr): 0.0%
- % Emetine at pH 6.5 ([3]; pH 6.5, 24 hrs): 13.4%
- % Emetine at pH 6.5 ([3]; pH 6.5, 48 hrs): 21.1%
- % Emetine at pH 7.4 to 8.0 over 72 hrs ([3]; pH 7.4 to 8.0, 0 hrs): 0.0%
- % Emetine at pH 7.4 to 8.0 over 72 hrs ([3]; pH 7.4 to 8.0, 24 hrs): 0.0%
- % Emetine at pH 7.4 to 8.0 over 72 hrs ([3]; pH 7.4 to 8.0, 48 hrs): 0.0%

Compound: CCC1CN2CCc3cc(OC)c(OC)cc3C2CC1CC1c2cc(OC)c(OC)cc2CCN1C(=S)NCc1ccc(C)cc1 (centres unmarked) [Compound 11j]
- IC50 [1, 5]: 2.63 ± 0.106 µM
